Laboratory results as given in ChEMBL document CHEMBL1201862, “PubChem BioAssay data set” (2004).
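1) Cells in 96-well plates. 2) Compound, 48 h, 5 concentrations. 3) Linear interpolation between surrounding doses. 4) Unreached endpoint = highest concentration. GI50 marks 50% less growth.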 Calls of active or inactive are those of the source. No stated cut-off is given here; in the data, active = GI50 up to about 1.1 µM and inactive = higher.

Key:
Assay in all cases: NCI anticancer screen, dose series, 48 h
NCI/ADR-RES = test system: NCI/ADR-RES
PC-3 = test system: PC-3
SW-620 = test system: SW-620
SNB-75 = test system: SNB-75
CCRF-CEM = test system: CCRF-CEM
Hs-578T = test system: Hs-578T
HOP-62 = test system: HOP-62
HT-29 = test system: HT-29
K562 = test system: K562
U-251 = test system: U-251
COLO 205 = test system: COLO 205
NCI-H522 = test system: NCI-H522
UACC-62 = test system: UACC-62
MOLT-4 = test system: MOLT-4
NCI-H23 = test system: NCI-H23
LOX IMVI = test system: LOX IMVI
EKVX = test system: EKVX
UACC-257 = test system: UACC-257
SF-539 = test system: SF-539
UO-31 = test system: UO-31
MCF7 = test system: MCF7
SR = test system: SR
786-0 = test system: 786-0
A498 = test system: A498
DU-145 = test system: DU-145
OVCAR-3 = test system: OVCAR-3
M14 = test system: M14
HL-60 = test system: HL-60
SK-OV-3 = test system: SK-OV-3
CAKI-1 = test system: CAKI-1
MDA-MB-231 = test system: MDA-MB-231
T47D = test system: T47D
KM12 = test system: KM12
SK-MEL-2 = test system: SK-MEL-2
SN12C = test system: SN12C
TK-10 = test system: TK-10
NCI-H226 = test system: NCI-H226
HOP-92 = test system: HOP-92
RPMI-8226 = test system: RPMI-8226
OVCAR-5 = test system: OVCAR-5
MDA-MB-435 = test system: MDA-MB-435
ACHN = test system: ACHN
SF-268 = test system: SF-268
RXF 393 = test system: RXF 393
OVCAR-4 = test system: OVCAR-4
HCC 2998 = test system: HCC 2998
HCT-15 = test system: HCT-15
A549 = test system: A549
HCT-116 = test system: HCT-116
BT-549 = test system: BT-549
SK-MEL-28 = test system: SK-MEL-28
SF-295 = test system: SF-295
OVCAR-8 = test system: OVCAR-8
SK-MEL-5 = test system: SK-MEL-5
SNB-19 = test system: SNB-19
IGROV-1 = test system: IGROV-1
NCI-H460 = test system: NCI-H460
Malme-3M = test system: Malme-3M

SMILES: O=C(Nc1ccccc1C(=O)NCc1ccccc1)/C(=C/c1ccccc1)NC(=O)c1ccccc1
- GI50 (NCI/ADR-RES): 62.2 µM (inactive)
- GI50 (PC-3): > 100 µM (inactive)
- GI50 (SW-620): > 100 µM (inactive)
- GI50 (SNB-75): 92.7 µM (inactive)
- GI50 (CCRF-CEM): > 100 µM (inactive)
- GI50 (Hs-578T): 63.1 µM (inactive)
- GI50 (HOP-62): > 100 µM (inactive)
- GI50 (HT-29): > 100 µM (inactive)
- GI50 (K562): > 100 µM (inactive)
- GI50 (U-251): > 100 µM (inactive)
- GI50 (COLO 205): > 100 µM (inactive)
- GI50 (NCI-H522): > 100 µM (inactive)
- GI50 (UACC-62): > 100 µM (inactive)
- GI50 (MOLT-4): 80.7 µM (inactive)
- GI50 (NCI-H23): > 100 µM (inactive)
- GI50 (LOX IMVI): > 100 µM (inactive)
- GI50 (EKVX): > 100 µM (inactive)
- GI50 (UACC-257): > 100 µM (inactive)
- GI50 (SF-539): > 100 µM (inactive)
- GI50 (UO-31): > 100 µM (inactive)
- GI50 (MCF7): > 100 µM (inactive)
- GI50 (SR): > 100 µM (inactive)
- GI50 (786-0): 47.6 µM (inactive)
- GI50 (A498): > 100 µM (inactive)
- GI50 (DU-145): > 100 µM (inactive)
- GI50 (OVCAR-3): > 100 µM (inactive)
- GI50 (M14): > 100 µM (inactive)
- GI50 (HL-60): > 100 µM (inactive)
- GI50 (SK-OV-3): > 100 µM (inactive)
- GI50 (CAKI-1): > 100 µM (inactive)
- GI50 (MDA-MB-231): > 100 µM (inactive)
- GI50 (T47D): > 100 µM (inactive)
- GI50 (KM12): > 100 µM (inactive)
- GI50 (SK-MEL-2): > 100 µM (inactive)
- GI50 (SN12C): > 100 µM (inactive)
- GI50 (TK-10): > 100 µM (inactive)
- GI50 (NCI-H226): > 100 µM (inactive)
- GI50 (HOP-92): > 100 µM (inactive)
- GI50 (RPMI-8226): > 100 µM (inactive)
- GI50 (OVCAR-5): > 100 µM (inactive)
- GI50 (MDA-MB-435): > 100 µM (inactive)
- GI50 (ACHN): > 100 µM (inactive)
- GI50 (SF-268): > 100 µM (inactive)
- GI50 (RXF 393): > 100 µM (inactive)
- GI50 (OVCAR-4): 49.3 µM (inactive)
- GI50 (HCC 2998): > 100 µM (inactive)
- GI50 (HCT-15): > 100 µM
- GI50 (A549): > 100 µM (inactive)
- GI50 (HCT-116): > 100 µM (inactive)
- GI50 (BT-549): > 100 µM (inactive)
- GI50 (SK-MEL-28): > 100 µM (inactive)
- GI50 (SF-295): > 100 µM (inactive)
- GI50 (OVCAR-8): > 100 µM (inactive)
- GI50 (SK-MEL-5): > 100 µM (inactive)
- GI50 (SNB-19): > 100 µM (inactive)
- GI50 (IGROV-1): > 100 µM (inactive)

SMILES: COc1cc(/C=C2\CCc3ccccc3C2=O)ccc1O
- GI50 (NCI/ADR-RES): 29.5 µM (inactive)
- GI50 (PC-3): > 10 µM (inactive)
- GI50 (SW-620): 16.1 µM (inactive)
- GI50 (SNB-75): 28.5 µM (inactive)
- GI50 (CCRF-CEM): 1.41 µM (inactive)
- GI50 (Hs-578T): 29 µM (inactive)
- GI50 (HT-29): 18.2 µM (inactive)
- GI50 (K562): 16.8 µM (inactive)
- GI50 (U-251): 16.9 µM (inactive)
- GI50 (UACC-62): > 10 µM (inactive)
- GI50 (NCI-H460): 17.3 µM (inactive)
- GI50 (MOLT-4): 12 µM (inactive)
- GI50 (NCI-H23): 23 µM (inactive)
- GI50 (LOX IMVI): 15 µM (inactive)
- GI50 (EKVX): 25.4 µM (inactive)
- GI50 (SF-539): 16.1 µM (inactive)
- GI50 (UO-31): 14.3 µM (inactive)
- GI50 (MCF7): 11.1 µM (inactive)
- GI50 (SR): 11.2 µM (inactive)
- GI50 (786-0): 13.7 µM (inactive)
- GI50 (A498): > 10 µM (inactive)
- GI50 (OVCAR-3): 19.6 µM (inactive)
- GI50 (M14): 17.9 µM (inactive)
- GI50 (HL-60): 4.24 µM (inactive)
- GI50 (SK-OV-3): 26 µM (inactive)
- GI50 (CAKI-1): 24.3 µM (inactive)
- GI50 (KM12): 16.3 µM (inactive)
- GI50 (SN12C): 22.4 µM (inactive)
- GI50 (TK-10): 18.7 µM (inactive)
- GI50 (HOP-92): 22.6 µM (inactive)
- GI50 (RPMI-8226): 17.9 µM (inactive)
- GI50 (OVCAR-5): 14.2 µM (inactive)
- GI50 (ACHN): 26.4 µM (inactive)
- GI50 (SF-268): 27.1 µM (inactive)
- GI50 (RXF 393): 12 µM (inactive)
- GI50 (OVCAR-4): 18.5 µM (inactive)
- GI50 (HCC 2998): 5.64 µM (inactive)
- GI50 (HCT-15): 22.4 µM
- GI50 (A549): 22.1 µM (inactive)
- GI50 (BT-549): 17.9 µM (inactive)
- GI50 (SK-MEL-28): 21.1 µM (inactive)
- GI50 (OVCAR-8): 19.1 µM (inactive)
- GI50 (SK-MEL-5): 17.7 µM (inactive)
- GI50 (SNB-19): 14.6 µM (inactive)
- GI50 (IGROV-1): 34.3 µM (inactive)

SMILES: O=C1c2cc3c(cc2CC12Cc1cc4c(cc1C2=O)CCC4)CCC3
- GI50 (NCI/ADR-RES): > 100 µM (inactive)
- GI50 (PC-3): > 100 µM (inactive)
- GI50 (SW-620): > 100 µM (inactive)
- GI50 (SNB-75): > 100 µM (inactive)
- GI50 (CCRF-CEM): > 100 µM (inactive)
- GI50 (Hs-578T): > 100 µM (inactive)
- GI50 (HOP-62): > 100 µM (inactive)
- GI50 (HT-29): > 100 µM (inactive)
- GI50 (K562): > 100 µM (inactive)
- GI50 (U-251): > 100 µM (inactive)
- GI50 (COLO 205): > 100 µM (inactive)
- GI50 (NCI-H522): > 100 µM (inactive)
- GI50 (UACC-62): > 100 µM (inactive)
- GI50 (NCI-H460): > 100 µM (inactive)
- GI50 (MOLT-4): > 100 µM (inactive)
- GI50 (NCI-H23): > 100 µM (inactive)
- GI50 (LOX IMVI): > 100 µM (inactive)
- GI50 (EKVX): > 100 µM (inactive)
- GI50 (Malme-3M): > 100 µM (inactive)
- GI50 (UACC-257): > 100 µM (inactive)
- GI50 (SF-539): > 100 µM (inactive)
- GI50 (UO-31): > 100 µM (inactive)
- GI50 (MCF7): > 100 µM (inactive)
- GI50 (SR): > 100 µM (inactive)
- GI50 (786-0): > 100 µM (inactive)
- GI50 (A498): > 100 µM (inactive)
- GI50 (DU-145): > 100 µM (inactive)
- GI50 (OVCAR-3): > 100 µM (inactive)
- GI50 (M14): 14.4 µM (inactive)
- GI50 (HL-60): > 100 µM (inactive)
- GI50 (SK-OV-3): > 100 µM (inactive)
- GI50 (CAKI-1): > 100 µM (inactive)
- GI50 (MDA-MB-231): > 100 µM (inactive)
- GI50 (T47D): > 100 µM (inactive)
- GI50 (KM12): > 100 µM (inactive)
- GI50 (SK-MEL-2): > 100 µM (inactive)
- GI50 (SN12C): > 100 µM (inactive)
- GI50 (TK-10): > 100 µM (inactive)
- GI50 (NCI-H226): > 100 µM (inactive)
- GI50 (RPMI-8226): > 100 µM (inactive)
- GI50 (OVCAR-5): 48.3 µM (inactive)
- GI50 (MDA-MB-435): > 100 µM (inactive)
- GI50 (ACHN): > 100 µM (inactive)
- GI50 (SF-268): > 100 µM (inactive)
- GI50 (RXF 393): 21.8 µM (inactive)
- GI50 (HCC 2998): > 100 µM (inactive)
- GI50 (HCT-15): > 100 µM
- GI50 (A549): > 100 µM (inactive)
- GI50 (HCT-116): > 100 µM (inactive)
- GI50 (BT-549): > 100 µM (inactive)
- GI50 (SK-MEL-28): > 100 µM (inactive)
- GI50 (SF-295): > 100 µM (inactive)
- GI50 (OVCAR-8): > 100 µM (inactive)
- GI50 (SK-MEL-5): > 100 µM (inactive)
- GI50 (SNB-19): > 100 µM (inactive)
- GI50 (IGROV-1): > 100 µM (inactive)
